Data: patent US20170202822A1, “METHODS AND COMPOSITIONS FOR ENHANCING CANCER THERAPY” (THE SCRIPPS RESEARCH INSTITUTE, priority 2014, published 2017)

How the values were obtained:
[1] = tested on: MCF7 cells; assay: Proliferation of MCF7 cells (shCtrl vs shNAMPT) by crystal violet staining; assay type: cell-based, human; settings: for restoration of tamoxifen sensitivity: ER+/NAMPT-low MCF7 cells, 1, 5 or 10 mM NAM or 1 or 5 mM NR
Procedure: (§1) NAMPT knockdown (shNAMPT) reduced NAMPT (A) mRNA and (B) protein expression in MCF7 and T47D cells compared to controls transduced with scrambled shRNA (shCtrl). (A) NAMPT mRNA levels were analyzed by real time PCR and are expressed relative to beta-D-glucuronidase (GUSB) (***P<0.001) (n=3). (B) NAMPT protein expression was analyzed by Western blot analysis. Quantification of NAMPT protein was related to β-tubulin expression. […] Cellular NAD was analyzed in whole cell extracts of 1×10^6 cells. Metabolite concentrations were determined using a NAD+/NADH fluorescence detection kit (Cell Technology, Inc) and normalized to protein content. (D) Proliferation of control (shCtrl) vs NAMPT-knockdown (shNAMPT) MCF7 and T47D cells, untreated or treated with 0.001, 0.05, 0.1, 1, or 5 μM 4-hydroxytamoxifen (tamoxifen active metabolite) for 14 days. Proliferation was measured based on crystal violet staining and is expressed as % of proliferation of untreated cells. Groups were compared by unpaired two-tailed Student's t-test in n=4 (***P<0.001, **P<0.01 *P<0.05).
(A) Effect of nicotinamide treatment (10 mM NAM) on proliferation of control (shCtrl) vs NAMPT-knockdown (shNAMPT) MCF7 and T47D cells exposed to 1 μM or 0.1 μM 4-hydroxytamoxifen (tamoxifen active metabolite) respectively for 14 days. Proliferation was measured based on crystal violet staining and is expressed as % of proliferation of untreated cells (no 4-hydroxytamoxifen, no NAM). Groups were compared by unpaired two-tailed Student's t-test in n=4 (***P<0.001, **P<0.01 *P<0.05). (B) NAMPT KD cells present reduced absolute levels of NAD′ and nicotinamide treatment induces NAD^+ and NADH levels in both control (CT) or NAMPT KD (shNAMPT) breast cancer cells. NAD^+ and NADH were analyzed independently in whole cell extracts of 1×10^6 cells. Metabolite concentrations were determined using a NAD^+/NADH fluorescence detection kit (Cell Technology, Inc). (C) Distribution of ERα in MCF7 shCT or shNAMPT cells, measured after 7 days of cell treatment with 10 mM nicotinamide in EMEM medium, supplemented with 10% FBS. ERα localization was detected by immunofluorescence using anti-ERα clone SP1 (Thermo Fisher). Nuclei were detected by DAPI staining. Representative images are shown.
Nicotinamide riboside (NR) was more efficient than nicotinamide in blocking low-NAMPT-induced tamoxifen resistance. Proliferation of control (shCT) vs NAMPT-knockdown (shNAMPT) MCF7 cells treated with 1 or 5 μM 4-hydroxytamoxifen (tamoxifen active metabolite) for 7 days with or without (A) 1, 5 or 10 mM nicotinamide (NAM) or (B) 1 or 5 mM nicotinamide riboside (NR). Proliferation was measured based on crystal violet staining and is expressed as % of proliferation of untreated cells (no 4-hydroxytamoxifen). Groups were compared by unpaired two-tailed Student's t-test in n=4 (***P<0.001, **P<0.01 *P<0.05).

[2] = tested on: T47D cells; assay: Proliferation of T47D cells (shCtrl vs shNAMPT) by crystal violet staining; assay type: cell-based, human; settings: 14 days
Procedure: as §1, with “(D) Proliferation of control (shCtrl) vs NAMPT-knockdown (shNAMPT) MCF7 and T47D cells, untreated or treated with 0.001, 0.05, 0.1, 1, or 5 μM 4-hydroxytamoxifen (tamoxifen active metabolite) for 14 days.” left out, “Groups were compared by unpaired two-tailed Student's t-test in n=4 (***P<0.001, **P<0.01 *P<0.05).” left out
(§2) (A) Effect of nicotinamide treatment (10 mM NAM) on proliferation of control (shCtrl) vs NAMPT-knockdown (shNAMPT) MCF7 and T47D cells exposed to 1 μM or 0.1 μM 4-hydroxytamoxifen (tamoxifen active metabolite) respectively for 14 days. Proliferation was measured based on crystal violet staining and is expressed as % of proliferation of untreated cells (no 4-hydroxytamoxifen, no NAM). […] NAD^+ and NADH were analyzed independently in whole cell extracts of 1×10^6 cells. Metabolite concentrations were determined using a NAD^+/NADH fluorescence detection kit (Cell Technology, Inc). […] Nuclei were detected by DAPI staining. […]

[3] = tested on: MCF7 cells; assay: Growth of MCF7 cells in estrogen-free, phenol red-free medium, crystal violet staining; assay type: cell-based, human; settings: for proliferation with 4-hydroxytamoxifen: 10 nM E2 + 1 μM 4-hydroxytamoxifen; for sensitization to tamoxifen's antiproliferative effects: 1 μM 4-hydroxytamoxifen
Procedure: (A) Growth of control (shCtrl) vs NAMPT knockdown (shNAMPT) MCF7 cells cultured for 7 days in EMEM medium supplemented with 10% FBS, or in phenol red-free EMEM supplemented with 10% charcoal-stripped estrogen-free FBS. Growth was measured by crystal violet staining after 7 days in culture. Groups were compared by unpaired two-tailed Student's t-test in n=3 (***P<0.001). (B) Growth of control (shCtrl) vs NAMPT knockdown (shNAMPT) MCF7 cells cultured in estrogen-free, phenol red-freeEMEM medium supplemented with 10% charcoal-stripped FBS. […] Growth was measured by crystal violet staining after 7 days in culture. Groups were compared by unpaired two-tailed Student's t-test in n=3 (*P<0.05,[…],***P<0.001). (C) Changes in NAD^+ levels impact the subcellular localization of ERα. […] Estrogen starvation and treatment were performed in phenol red-free EMEM supplemented with 10% charcoal-stripped FBS. ERα was detected by immunofluorescence using Pierce anti-ERα antibody (MA1-39539). Representative images are shown for all conditions.
To further analyze the regulatory role of NAMPT and the NAD^+ salvage pathway in estrogen-dependent growth and tamoxifen treatment, we first analyzed the capacity of MCF7 variant cells to grow in estrogen-free media. […] Importantly, low NAMPT expressing MCF7 cells (shNAMPT) had the capacity to proliferate even in the absence of estrogens (FIG. 6A). […] Furthermore, NAM treatment sensitized shCT and re-sensitized shNAMPT cells to tamoxifen's antiproliferative effects (FIG. 6B). In FIG. 4C, we analyzed the ERα localization in MCF7 cells when the cells were cultured in EMEM medium supplemented with 10% FBS, serum that contain hormones and growth factors that modulate ERα localization independently of the presence of estrogens (Muriel Le Romancer et al., Endocrine Reviews, October 2011, 32(5):597-622). In order to deeply analyze the role of NAMPT and NAM treatment on modulating ligand-dependent ERα nuclear localization, we starved the cells from any growth factor and hormones including estrogens for 72 hours by growing them in phenol red-free EMEM/10% charcoal-stripped FBS. Then, breast cancer cells were cultured for 24 hours with or without 10 nM E2, or with 10 nM E2 plus 10 mM NAM. […] In the absence of estrogens, ERα was distributed in the cytoplasm of control cells while in shNAMPT expressing cells ERα was concentrated in the nuclei.

[4] = tested on: MDA-MB-231 cells; assay: Proliferation of triple negative MDA-MB-231 cells by crystal violet staining; assay type: cell-based, human; settings: 10 mM NAM, 0.5, 1 or 5 μM 4-hydroxytamoxifen, 14 days
Procedure: Proliferation of triple negative breast MDA-MB-231 cells, untreated or treated with 0.5, 1 or 5 μM 4-hydroxytamoxifen (tamoxifen active metabolite) for 14 days, with or without treatment with 10 mM nicotinamide (NAM). Proliferation was measured based on crystal violet staining and is expressed as % of proliferation of untreated cells (no 4-hydroxytamoxifen, no NAM). Groups were compared by unpaired two-tailed Student's t-test in n=3 (**P<0.01).

[5] = tested on: ERα
[6] = tested on: cellular NAD^+; assay: Cellular NAD+ in whole cell extracts, NAD+/NADH fluorescence detection kit; assay type: cell-based, human; settings: MCF7 cells expressing basal or low NAMPT levels
Procedure: as §1, with “(D) Proliferation of control (shCtrl) vs NAMPT-knockdown (shNAMPT) MCF7 and T47D cells, untreated or treated with 0.001, 0.05, 0.1, 1, or 5 μM 4-hydroxytamoxifen (tamoxifen active metabolite) for 14 days.” left out, “Groups were compared by unpaired two-tailed Student's t-test in n=4 (***P<0.001, **P<0.01 *P<0.05).” left out
as §2

[7] = 1 or 5 μM 4-hydroxytamoxifen, 7 days
[8] = MCF7 shNAMPT, 10 mM NAM, 7 days

4-hydroxytamoxifen
anti-proliferative efficacy of 4-hydroxytamoxifen on reduction of NAMPT expression ([1]; MCF7 shNAMPT vs shCtrl, 0.001-5 μM, 14 days): dramatically reduced the anti-proliferative efficacy | anti-proliferative efficacy of 4-hydroxytamoxifen on reduction of NAMPT expression ([2]; T47D shNAMPT vs shCtrl, 0.001-5 μM): dramatically reduced the anti-proliferative efficacy | proliferation with 4-hydroxytamoxifen ([3]; MCF7 shCT, 7 days): able to reduce proliferation | proliferation with 4-hydroxytamoxifen ([3]; MCF7 shNAMPT, 7 days): not in shNAMPT

C[C@]12CC[C@@H]3c4ccc(O)cc4CC[C@H]3[C@@H]1CC[C@@H]2O [17-β-estradiol]
proliferation with 17-β-estradiol ([3]; MCF7 shCT, 10 nM E2, 7 days, estrogen-free medium): induced proliferation

NC(=O)c1cccnc1 [NAM, nicotinamide]
restoration of tamoxifen sensitivity [1, 7]: restore tamoxifen sensitivity | effect of NAM on anti-proliferative efficacy of 4-hydroxytamoxifen ([1]; MCF7 shCtrl and shNAMPT, 10 mM NAM, 1 μM 4-hydroxytamoxifen, 14 days): enhanced the anti-proliferative efficacy of 4-hydroxytamoxifen | effect of NAM on anti-proliferative efficacy of 4-hydroxytamoxifen ([2]; T47D shCtrl and shNAMPT, 10 mM NAM, 0.1 μM 4-hydroxytamoxifen): enhanced the anti-proliferative efficacy of 4-hydroxytamoxifen | sensitization to tamoxifen's antiproliferative effects ([3]; MCF7 shCT, 10 mM NAM, 7 days): sensitized | estrogen-induced proliferation ([3]; MCF7 shCT, 10 mM NAM, 7 days): dramatically inhibited | sensitization to tamoxifen's antiproliferative effects [3, 8]: re-sensitized | estrogen-independent growth [3, 8]: dramatically inhibited | sensitization to tamoxifen-induced antiproliferative effects [4]: sensitized MDA-MB-231 to tamoxifen-induced antiproliferative effects | ERα nuclear localization with NAM ([5]; MCF7 control and shNAMPT, estrogen starved 72 h, 10 nM E2 plus 10 mM NAM, 24 h): inhibited ERα nuclear localization | ERα expression and nuclear localization ([5]; MCF7 shCT or shNAMPT, 10 mM nicotinamide, 7 days, EMEM with 10% FBS): do not affect estrogen receptor alpha (ERα) expression and nuclear localization | NAD+ levels after NAM treatment [6]: induced significantly NAD^+ levels

NC(=O)c1ccc[n+]([C@@H]2O[C@H](CO)[C@@H](O)[C@H]2O)c1 [nicotinamide riboside]
activity in restoring Tamoxifen sensitivity compared with NAM ([1]; ER+/NAMPT low (shNAMPT) MCF7 cells, 1 or 5 mM NR, 1 or 5 μM 4-hydroxytamoxifen, 7 days): more potent activity than NAM | restoration of tamoxifen sensitivity [1, 7]: restore tamoxifen sensitivity
